± gives the uncertainty stated by the source.
Assay: xn = mol fraction of the nth substance listed

C=CC#N + COC(C)=O
viscosity [mPa·s]
Settings | 298.15 K | 303.15 K | 308.15 K
101.3 kPa, x1 = 0.1018 | – | 0.3427 ± 0.0031 | –
101.3 kPa, x1 = 0.1999 | – | 0.3428 ± 0.0031 | –
101.3 kPa, x1 = 0.3006 | – | 0.3407 ± 0.0031 | –
101.3 kPa, x1 = 0.4001 | – | 0.338 ± 0.0031 | –
101.3 kPa, x1 = 0.4946 | – | 0.3357 ± 0.0031 | –
101.3 kPa, x1 = 0.6012 | – | 0.3319 ± 0.0031 | –
101.3 kPa, x1 = 0.6955 | – | 0.3283 ± 0.0031 | –
101.3 kPa, x1 = 0.8014 | – | 0.3242 ± 0.0031 | –
101.3 kPa, x1 = 0.896 | – | 0.3198 ± 0.0031 | –
101.33 kPa, x1 = 0.0617 | 0.389 ± 0.006 | 0.371 ± 0.006 | 0.354 ± 0.006
101.33 kPa, x1 = 0.1961 | 0.385 ± 0.006 | 0.367 ± 0.006 | 0.351 ± 0.006
101.33 kPa, x1 = 0.3042 | 0.38 ± 0.006 | 0.362 ± 0.006 | 0.349 ± 0.006
101.33 kPa, x1 = 0.4041 | 0.375 ± 0.006 | 0.357 ± 0.006 | 0.345 ± 0.006
101.33 kPa, x1 = 0.5024 | 0.37 ± 0.006 | 0.353 ± 0.006 | 0.34 ± 0.005
101.33 kPa, x1 = 0.6004 | 0.365 ± 0.006 | 0.348 ± 0.006 | 0.335 ± 0.005
101.33 kPa, x1 = 0.7033 | 0.36 ± 0.006 | 0.343 ± 0.006 | 0.33 ± 0.005
101.33 kPa, x1 = 0.8037 | 0.355 ± 0.006 | 0.336 ± 0.005 | 0.322 ± 0.005
101.33 kPa, x1 = 0.8416 | 0.353 ± 0.006 | 0.333 ± 0.005 | 0.319 ± 0.005

CCC(C)(C)O + COC(C)=O
298.15 K, 101.33 kPa
Settings | viscosity [mPa·s]
x2 = 0.1632 | 1.792 ± 0.018
x2 = 0.2443 | 1.33 ± 0.015
x2 = 0.35 | 0.96 ± 0.013
x2 = 0.448 | 0.787 ± 0.012
x2 = 0.5246 | 0.677 ± 0.012
x2 = 0.6222 | 0.57 ± 0.011
x2 = 0.7221 | 0.496 ± 0.011
x2 = 0.8153 | 0.434 ± 0.011
x2 = 0.9107 | 0.395 ± 0.011

CCC(C)(C)O + COc1ccccc1
viscosity [mPa·s], 101.33 kPa
Settings | x2 = 0.1 | x2 = 0.2 | x2 = 0.2997 | x2 = 0.4001 | x2 = 0.5007 | x2 = 0.5997 | x2 = 0.7012 | x2 = 0.8005 | x2 = 0.9
303.15 K | 2.246 ± 0.027 | 1.792 ± 0.021 | 1.463 ± 0.017 | 1.232 ± 0.015 | 1.079 ± 0.013 | 0.988 ± 0.012 | 0.941 ± 0.011 | 0.922 ± 0.011 | 0.917 ± 0.011
313.15 K | 1.623 ± 0.019 | 1.339 ± 0.016 | 1.125 ± 0.014 | 0.976 ± 0.012 | 0.885 ± 0.011 | 0.831 ± 0.01 | 0.808 ± 0.01 | 0.799 ± 0.01 | 0.792 ± 0.01
323.15 K | 1.206 ± 0.014 | 1.023 ± 0.012 | 0.885 ± 0.011 | 0.798 ± 0.01 | 0.751 ± 0.009 | 0.73 ± 0.009 | 0.719 ± 0.009 | 0.709 ± 0.009 | 0.697 ± 0.009

CN(C)c1ccccc1 + COc1ccccc1
viscosity [mPa·s], 101 kPa
Settings | x1 = 0.1072 | x1 = 0.2092 | x1 = 0.3052 | x1 = 0.406 | x1 = 0.5082 | x1 = 0.6053 | x1 = 0.6916 | x1 = 0.7895 | x1 = 0.8939
293.15 K | 1.123 ± 0.024 | 1.171 ± 0.025 | 1.21 ± 0.025 | 1.247 ± 0.026 | 1.281 ± 0.027 | 1.309 ± 0.027 | 1.331 ± 0.028 | 1.349 ± 0.028 | 1.359 ± 0.028
298.15 K | 1.039 ± 0.022 | 1.083 ± 0.023 | 1.124 ± 0.024 | 1.159 ± 0.024 | 1.191 ± 0.025 | 1.22 ± 0.026 | 1.241 ± 0.026 | 1.255 ± 0.026 | 1.27 ± 0.027
303.15 K | 0.957 ± 0.02 | 0.994 ± 0.021 | 1.032 ± 0.022 | 1.064 ± 0.022 | 1.092 ± 0.023 | 1.116 ± 0.023 | 1.135 ± 0.024 | 1.142 ± 0.024 | 1.158 ± 0.024
308.15 K | 0.887 ± 0.019 | 0.917 ± 0.019 | 0.949 ± 0.02 | 0.98 ± 0.021 | 1.004 ± 0.021 | 1.025 ± 0.022 | 1.036 ± 0.022 | 1.042 ± 0.022 | 1.056 ± 0.022
313.15 K | 0.811 ± 0.017 | 0.838 ± 0.018 | 0.866 ± 0.018 | 0.897 ± 0.019 | 0.92 ± 0.019 | 0.936 ± 0.02 | 0.947 ± 0.02 | 0.955 ± 0.02 | 0.969 ± 0.02
318.15 K | 0.767 ± 0.016 | 0.791 ± 0.017 | 0.815 ± 0.017 | 0.845 ± 0.018 | 0.869 ± 0.018 | 0.883 ± 0.019 | 0.889 ± 0.019 | 0.898 ± 0.019 | 0.911 ± 0.019
323.15 K | 0.709 ± 0.015 | 0.728 ± 0.015 | 0.751 ± 0.016 | 0.778 ± 0.016 | 0.8 ± 0.017 | 0.811 ± 0.017 | 0.814 ± 0.017 | 0.823 ± 0.017 | 0.836 ± 0.018

— the CheMixHub viscosity set
